Experimental data from patent US12137885B2, “Bodily fluid collection device” (SENJU PHARMACEUTICAL CO., LTD., priority 2020, dated 2024).
Where a name gives a salt, the structure may show the parent alone.

Assay: Timolol concentration of the aqueous humor after ophthalmic administration, collected with the bodily fluid-collecting device (LC/MS/MS)
Assay type: in vivo
Settings: rabbit; single 40 μl ophthalmic dose of 0.5% timolol maleate sustained ophthalmic solution; aqueous humor 4 hours after administration; Method 1 (0.25, 0.5, 1, 2, 4 h) vs Method 2 (4 h only); FIG. 6
Protocol: Using a micropipette, a 0.5% timolol maleate sustained ophthalmic solution (produced by Santen Pharmaceutical Co., Ltd., Timoptol (registered trademark) XE ophthalmic solution 0.5%) was administered as a single dose of 40 μl near the upper portion of the bulbar conjunctiva of rabbit eyeballs retained using a retention can. The administration was performed on both eyes. A rabbit was retained using a retention can. 30 μl of a 10-fold diluted solution (dilution medium: physiological saline) of a 0.4% oxybuprocaine hydrochloride ophthalmic solution (produced by Santen Pharmaceutical Co., Ltd., Benoxil (registered trademark) ophthalmic solution 0.4%) was ophthalmically administered to the retained rabbit, and local anesthesia was applied. After gently stimulating the cornea with the tip of tweezers and confirming the disappearance of the corneal reflex, a lid retractor was attached. In the Example, a device with a 20-μl capillary attached to a 34 G injection needle was used as the bodily fluid-collecting device. After retaining the eyeball by sandwiching the upper bulbar conjunctiva with tweezers, the needle tip of the bodily fluid-collecting device was inserted into the anterior chamber via the cornea by two-step puncture while checking the curved surface of the cornea. […] After deproteinizing each sample, the timolol concentration of the aqueous humor was measured using the LC/MS/MS method.

**Q.** For `CC(C)(C)NC[C@H](O)COc1nsnc1N1CCOCC1` [timolol, timolol maleate], which “timolol concentration of the aqueous humor at the final collection (Method 1, repeated collection from the same eye) compared with one-point collection (Method 2)” value is on record?
**A.** equivalent
